Reference: US20260217661A1, “TREATMENTS FOR PAIN” (Sevenless Therapeutics Limited, priority 2023, published 2026)

Target: T1, KRAS WT/SOS1 (Homo sapiens, UniProt Q07889)
T1 sequence (Q07889 1-1333): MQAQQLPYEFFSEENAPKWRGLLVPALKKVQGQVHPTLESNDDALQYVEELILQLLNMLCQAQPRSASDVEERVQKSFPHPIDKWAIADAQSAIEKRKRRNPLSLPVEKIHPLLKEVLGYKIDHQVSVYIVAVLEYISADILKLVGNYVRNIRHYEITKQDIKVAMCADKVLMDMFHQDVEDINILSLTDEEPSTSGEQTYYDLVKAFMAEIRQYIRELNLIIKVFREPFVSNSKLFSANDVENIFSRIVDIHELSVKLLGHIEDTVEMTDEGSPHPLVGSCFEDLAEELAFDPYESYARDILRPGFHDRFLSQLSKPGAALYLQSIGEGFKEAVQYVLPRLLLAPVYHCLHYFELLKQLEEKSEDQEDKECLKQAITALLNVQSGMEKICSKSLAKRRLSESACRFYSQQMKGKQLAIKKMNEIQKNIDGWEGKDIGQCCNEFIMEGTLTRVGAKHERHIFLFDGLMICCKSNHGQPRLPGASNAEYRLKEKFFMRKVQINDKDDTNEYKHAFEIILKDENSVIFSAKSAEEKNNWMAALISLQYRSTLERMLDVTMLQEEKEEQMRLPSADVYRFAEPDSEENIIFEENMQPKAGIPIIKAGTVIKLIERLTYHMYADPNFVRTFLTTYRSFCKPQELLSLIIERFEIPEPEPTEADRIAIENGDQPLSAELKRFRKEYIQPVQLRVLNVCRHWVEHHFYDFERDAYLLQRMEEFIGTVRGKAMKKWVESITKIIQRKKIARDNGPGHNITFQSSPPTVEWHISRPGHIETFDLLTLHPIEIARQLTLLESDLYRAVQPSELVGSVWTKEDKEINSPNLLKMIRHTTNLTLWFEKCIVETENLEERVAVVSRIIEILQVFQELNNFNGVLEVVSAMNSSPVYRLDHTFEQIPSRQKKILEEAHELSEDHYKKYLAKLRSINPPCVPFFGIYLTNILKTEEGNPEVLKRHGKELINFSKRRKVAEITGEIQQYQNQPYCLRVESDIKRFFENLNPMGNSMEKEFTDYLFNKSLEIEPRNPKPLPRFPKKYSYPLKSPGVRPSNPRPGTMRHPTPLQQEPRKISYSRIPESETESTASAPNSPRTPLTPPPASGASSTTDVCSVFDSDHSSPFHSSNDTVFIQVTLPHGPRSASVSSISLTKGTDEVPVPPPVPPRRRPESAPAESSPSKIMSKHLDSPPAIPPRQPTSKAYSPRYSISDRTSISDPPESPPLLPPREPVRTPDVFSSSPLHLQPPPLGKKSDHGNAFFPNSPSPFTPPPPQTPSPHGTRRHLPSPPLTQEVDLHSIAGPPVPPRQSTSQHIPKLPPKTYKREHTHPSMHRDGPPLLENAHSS
Experiment: HTRF KRAS WT/SOS1 PPI kit (Cisbio) screen for SOS1 inhibitors
Type: binding
Conditions: HTRF KRAS WT/SOS1 PPI assay, 10-point dilution series starting at 10 μM, 60 minutes incubation
Method: Compounds were screened using an HTRF KRAS WT/SOS1 PPI kit provided by Cis bio, according to the manufacturer's instructions, with the modifications described below. All reagents were allowed to equilibrate to room temperature and diluted to working stock in Binding Domain Detection buffer (BDD buffer). Stock solutions were prepared by adding 1 part Tag1-KRAS WT/GTP to 1 part Tag2-SOS1 and 1 part BDD. Separately, 1 part Anti-Tag1 XL665 antibody premix was added to Anti-Tag2 Tb cryptate antibody premix. BI-3406 (Selleck Chemicals) was used as a standard, solubilised to 10 mM in DMSO. Test compounds were also solubilised to 10 mM in DMSO. […] Per well, 6 uL of Tag1-KRAS WT/GTP premix, 4 ul Tag2-SOS1 premix and 10 μl of Anti-Tag1 XL665 and Anti-Tag2 Tb cryptate antibodies were then added using a E1-ClipTip™ Electronic Adjustable Multichannel Equalizer Pipette. After the final addition, the plate was covered and placed in the benchtop incubator set at 22° C. The reaction was incubated for 60 minutes at room temperature, prior to reading using a Pherastar FSX plate reader.

- IC50: < 100 nM
Structure (SMILES): COc1cc2nncc(N[C@H](C)c3cccc(C(F)F)c3F)c2cc1N1CC2CC(C1)O2 [Example-8, 6-(6-oxa-3-azabicyclo [3.1.1]heptan-3-yl)-N—((R)-1-(3-(difluoromethyl)-2-fluorophenyl)ethyl)-7-methoxycinnolin-4-amine]
